Test results: patent US9365851B2, “Spalt-like transcription factor 4 (SALL4) and uses thereof” (National University of Singapore, priority 2011, dated 2016)

Experiments:
PTEN/AKT pathway = PTEN/AKT pathway expression in SNU-398 cells after treatment (Western blot, mRNA); format: cell-based, human; conditions: SNU-398
From the text: The induction of Pten expression was not affected when wt peptide was administrated together with a Pten inhibitor. AKT, a molecule with levels of phosphorylation controlled by the expression of Pten was affected by the wt peptide addition accordingly. […] The effect of wt peptide on pAKT was abrogated by the Pten inhibitor. […] In contrast, the protein expression level of endogenous Pten was very high in the none-SALL4 expressing SNU387 cells.
Then tested was whether this peptide could reverse the repressive effect of SALL4 on its target genes. The focus was onPTEN, since it is implicated in SALL4-mediated leukemogenesis (Yang et al., Blood, 112:805-813 (2008); Lu et al., PLoS One, 4:e5577 (2009)). In addition, it was previously reported that SALL4 could specifically bind to the PTEN promoter region in a chromatin immunoprecipitation (ChIP) assay (Lu et al., PLoS One, 4:e5577 (2009)). When SALL4 was overexpressed in 293T cells, an enrichment of SALL4 as well as decreased H3 acetylation at this binding site was observed, which correlated with decreased PTEN RNA expression (Lu et al., PLoS One, 4:e5577 (2009))). Therefore, it was hypothesized that SALL4 could recruit the HDAC/NuRD complex to repress PTEN, and that the wild type peptide would compete with endogenous SALL4 in recruiting the HDAC/NuRD complex to the PTEN promoter, and release the repression effect of SALL4 on PTEN. Furthermore, this model would predict that wild type peptide treatment of SALL4-expressing cells would lead to increased epigenetic markers of gene activation, such as H3 acetylation, at the PTEN promoter binding site, as well as an increase in PTEN expression. To test this possibility, SNU-398 cells were treated with scrambled or wild type peptide and subsequently evaluated for PTEN expression and H3 acetylation at the SALL4 binding site at the PTEN promoter region. […] Therefore, the results herein are compatible with the model that SALL4 recruits HDACs to repress PTEN expression, and blocking the SALL4-HDAC interaction with the wild type peptide results in increased expression of PTEN.
To confirm the involvement of PTEN tumor suppressor in SALL4 peptide-induced reduction of number of viable HCC cells, PTEN expression was analyzed by western blot upon drug treatment. […] Whether the increase in PTEN expression upon SALL4 peptide treatment has an effect in PI3K signalling by dephosphorylating AKT was examined.
To confirm the involvement of the PTEN tumor suppressor in the SALL4 peptide-induced reduction of HCC cell viability, PTEN expression was analyzed by western blot upon drug treatment. […] If the increase in PTEN expression has an effect in PI3K signaling was next examined. PTEN functions as a phosphatase to dephosphorylate AKT.

SNU-398 cells = assay: Cell viability assay (MTT/MTS); format: cell-based, human; conditions: for cell viability on co-treatment with wt peptide (rescue): SNU-398, wt peptide + PTEN inhibitor
Procedure: (§1) Cell viability was determined 72 hours after peptide treatments. Absorbance at 490 nm is directly correlated to cell viability. Wild type functional SALL4 peptide (wt), mutant non-functional SALL4 peptide (Mut.), trichostatin A (TSA), scrambled control peptide (Scr.), wild type peptide+PTEN inhibitor SF1670 (wt+Inh.) were given to the cells at the indicated concentration. PTEN inhibitor concentration was 400 nM. (31C, 31D) Western blot analyses of the effects of peptides on PTEN, AKT, and pAKT expression on SNU-398 (31C) and SNU-387 (31D) cells 72 hours following peptide treatments. 20 μM of wt or Scr. peptide or 100 nM of TSA was used. PTEN inhibitor concentration was 400 nM. (31E) Representative images show NOD/SCID mice transplanted with Scr peptide- and wt peptide-treated SNU-398 cells (left) and the dissected subcutaneous tumors (right). Arrow indicates subcutaneous tumor. (31F) Growth curve of subcutaneous tumors (left panel) and tumor weight of tumors dissected at day 26 post-transplantation (right panel). Results are mean±s.d. n=5; * P<0.05. (31G) Representative images show NOD/SCID mice transplanted with 3 million SNU-398 cells at the left flank and treated intraperitoneally for five consecutive days with 56 mg/kg body weight TAT-Mut. peptide or 60 mg/kg body weight wt peptide (top panel) and the dissected subcutaneous tumors (bottom). (31H) Tumor weight of tumors dissected at day 18 post-transplantation and post-treatment of mice treated intraperitoneally with TAT fusion peptides as described in 5 g. Results are mean±s.d. n=5; * P<0.05.
(§2) Cell viability assay (MTT) (Invitrogen) was performed according to the manufacturer's instructions. Briefly—10000 cells were seeded in 100 ul medium in 96 well plates. The next day cells were treated as indicated on the figures. At the designated time after the treatment 20 ul of 5 mg/ml MTT solution was added to each well. After 3.5 h incubation at 37 C the medium was removed and the reaction was terminated with a solution of 4 mM HCl, 0.1% Nondet P-40 (NP40) all in isopropanol in dark on orbital shaker for […]. at room temperature. The absorbance was read at 590 nm with a reference filter of 620 nm in Spectromax M3 (ABI) spectrophotometer.
(§3) Multiple leukemic and solid tumor cancer cell lines with high or low/no SALL4 expression (FIG. 10A) were chosen to test the biological effect(s) of the wild type peptide. Wild type or scrambled peptide was delivered into tumor cells at various concentrations, and their effects on cells were evaluated 72 hours post-treatment by the MTS cell viability assay. […] The effect of wild type peptide is SALL4-specific, as it had no effect on KBM5, an AML cell line with undetectable endogenous SALL4 expression. We were surprised to see that the wild type peptide had no effect on a high SALL4-expressing endometrioid cancer cell line, AN3CA. This prompted checking whether PTEN, a gene repressed by SALL4 through its interaction with NuRD 27, was present in this cell line. According to the model herein, the function of wild type peptide requires both the expression of SALL4 and intact SALL4 downstream target genes, such as PTEN. In tumor cells with PTEN deletion, even though wild type peptide could compete with endogenous SALL4 in interacting with the HDAC complex, an anti-proliferative effect might not be observed. Therefore, expression of PTEN was evaluated in AN3CA cells along with other cell lines. While PTEN protein was present in all the other cell lines, it was absent in AN3CA cells (FIG. 10C), with reported deletion mutation of the gene in this cell line 40,41. […] Furthermore, the anti-proliferative effect also required certain downstream targets, such as PTEN.
7000 cells were seeded in each wells of a microtiter plate in 100 μL of complete medium. Cells from each treatment were seeded in duplicate. Controls using the same medium without cells were set up in parallel. […]

SNU-387 cells = assay: Cell viability assay (MTT/MTS); format: cell-based, human; conditions: SNU-387, wt peptide + PTEN inhibitor
Procedure: as §1, §2
7000 cells were seeded in each wells of a microtiter plate in 100 μL of complete medium. Cells from each treatment were seeded in duplicate. Controls using the same medium without cells were set up in parallel. At various time points, 317 μg/mL of 3-(4,5-dimethylthiazol-2-yl)-5-(3-carboxymethoxyphenyl)-2-(4-sulfophenyl)-2H-tetrazolium (CellTiter96® AQueous One Solution Cell Proliferation Assay, Promega) was added to each well. After four hours incubation of the tetrazolium salt, absorbance at 490 nm was read by a microplate reader.

KBM5 cells = assay: MTS cell viability assay; format: cell-based; conditions: KBM5, wt peptide + PTEN inhibitor
Procedure: as §3
(§4) To further test whether the effect of wild type peptide on tumor cells is related to PTEN, a PTEN inhibitor (SF1670) was used (Li et al., Blood, 117:6702-6713). […] As a control for the specificity of SALL4, KBM5, a non-SALL4-expressing cell line was also treated with PTEN inhibitor.

THP1 cells = assay: MTS cell viability assay; format: cell-based; conditions: THP1, wt peptide + PTEN inhibitor
Procedure: as §3, §4

HDAC complex = target: T1, HDAC complex (Homo sapiens, UniProt Q09028); assay: Fluorescent polarization competitive binding in SNU-398 nuclear extracts; conditions: Example 6
T1 construct: endogenous in cells; host or cells: SNU-398 nuclear extract
T1 sequence (Q09028 whole entry, one chain of several): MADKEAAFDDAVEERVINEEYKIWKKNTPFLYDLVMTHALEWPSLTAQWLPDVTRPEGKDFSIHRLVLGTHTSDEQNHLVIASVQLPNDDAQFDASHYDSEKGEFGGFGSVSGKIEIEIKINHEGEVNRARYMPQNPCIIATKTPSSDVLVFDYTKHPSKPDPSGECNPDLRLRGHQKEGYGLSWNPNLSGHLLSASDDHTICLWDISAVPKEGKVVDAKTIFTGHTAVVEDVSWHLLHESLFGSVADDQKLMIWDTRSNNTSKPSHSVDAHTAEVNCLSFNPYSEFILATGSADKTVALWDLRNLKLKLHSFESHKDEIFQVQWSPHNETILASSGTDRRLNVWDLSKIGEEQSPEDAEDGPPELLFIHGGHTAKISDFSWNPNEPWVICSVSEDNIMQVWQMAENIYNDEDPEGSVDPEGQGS
Procedure: Below are the amino acid sequences of the peptides used in this study. In the mutant peptide (mut), Lys 5 is replaced with an alanine residue. […] In the first lane marked “Input”, 10% of the extracts were subjected to western blot analysis without immunoprecipitation. […] Extracts were subsequently immunoprecipitated with anti-FITC antibody and the complexes pulled down were subjected to an HDAC activity assay as described in the methods. TSA was added at a concentration of 100 nM. Input is the sample in which 10% of the extract was assayed for HDAC activity without the immunoprecipitation step. […] Competitive binding of nonlabeled wild type or scrambled peptides was measured by fluorescent polarization. […] The fluorescent polarization (y axis) is decreased if the FITC-labeled peptide is displaced from a larger complex.
Next tested was the binding affinity of the wild type and scrambled peptides to the HDAC complex. For this, Fluorescent Polarization (FP), a technology based on molecular movement and rotation in which fluorescent molecules are excited with polarized light, was used. If the fluorescent molecules are part of a large complex, they rotate less and the emitted light has high polarity. In contrast, smaller molecules rotate faster and have low polarity (“depolarized”). […] Using this approach, FITC-labeled wild type or scrambled peptides were first mixed with nuclear extracts from SNU-398 cells. Serial dilutions of unlabeled wild type or scrambled peptides were then added as competitors respectively, and measured by FP assay.

Compound | effect of wt peptide on pAKT on co-treatment with PTEN inhibitor (PTEN/AKT pathway; listed as PTEN inhibitor) | effect of wt peptide on pAKT on co-treatment with PTEN inhibitor (PTEN/AKT pathway; listed as Pten inhibitor) | cell viability on co-treatment with wt peptide (rescue) (SNU-398 cells) | cell viability on co-treatment with wt peptide (rescue) (SNU-398 cells; listed as PTEN inhibitor) | cell viability on co-treatment with wt peptide (rescue) (SNU-398 cells; listed as SF-1670) | cell viability on co-treatment with wt peptide (SNU-387 cells) | cell viability on co-treatment with wt peptide (KBM5 cells) | cell viability on co-treatment with wt peptide (rescue) (THP1 cells) | binding affinity by FP (HDAC complex) | cell viability / number of viable cells (SNU-398 cells; SNU-398 (high SALL4), 72 h)
CC(C)(C)C(=O)Nc1ccc2c(c1)C(=O)C(=O)c1ccccc1-2 [SF1670, reference compound] | can be rescued | abrogated | able to rescue the phenotype | able to rescue the phenotypes | restored the cell viability to a baseline level | showed no effect as well | showed no effect as well | restored the cell viability to the baseline levels | – | –
NH2-YGRKKRRQRRR-MSAAAQAKPHI-COOH (H-YGRKKRRQRRRMSAAAQAKPHI-OH) [TAT-Mut, reference compound] | – | – | – | – | – | – | – | – | minimal binding | did not exhibit such cell killing effect
